Test results from ChEMBL document CHEMBL1123701, “Synthesis and quantitative structure-activity relationship analysis of N-triiodoallyl- and N-iodopropargylazoles. New antifungal agents” (1987).
≈ marks a conversion by molar mass, not a printed value.

Tests used:
Trichophyton benhamiae = experiment: Antifungal activity towards Trichophyton mentagrophytes 530324 strain; format: functional, Arthroderma benhamiae
Candida albicans = experiment: Antifungal activity against Candida albicans C-A-24 strain; format: functional
Aspergillus fumigatus = experiment: Antifungal activity against Aspergillus fumigatus Saito strain; format: functional
Cryptococcus neoformans = experiment: Antifungal activity against Cryptococcus neoformans Cr-1 strain; format: functional
[1] = system: Trichophyton interdigitale; experiment: Antifungal activity towards Trichophyton interdigitale; format: functional

| Structure (SMILES) | MIC (Trichophyton benhamiae) | MIC (Candida albicans) | MIC (Aspergillus fumigatus) | MIC (Cryptococcus neoformans) | MIC [1] |
| --- | --- | --- | --- | --- | --- |
| COC(=O)c1cc([N+](=O)[O-])cn1CC(I)=C(I)I | 0.39 µg/mL (≈ 0.663 µM) | 3.13 µg/mL (≈ 5.32 µM) | 1.56 µg/mL (≈ 2.65 µM) | 3.13 µg/mL (≈ 5.32 µM) | 0.39 µg/mL (≈ 0.663 µM) |
| Cc1ccnn1CC#CI | 0.39 µg/mL (≈ 1.59 µM) | 6.25 µg/mL (≈ 25.4 µM) | 0.78 µg/mL (≈ 3.17 µM) | 1.56 µg/mL (≈ 6.34 µM) | 0.78 µg/mL (≈ 3.17 µM) |
| CC(C)(C)c1nnn(CC#CI)n1 | 0.78 µg/mL (≈ 2.69 µM) | 3.13 µg/mL (≈ 10.8 µM) | 1.56 µg/mL (≈ 5.38 µM) | 25 µg/mL (≈ 86.2 µM) | 0.78 µg/mL (≈ 2.69 µM) |
| CCc1nnnn1CC(I)=C(I)I | 1.56 µg/mL (≈ 3.02 µM) | > 25 µg/mL | 25 µg/mL (≈ 48.5 µM) | > 25 µg/mL | 3.13 µg/mL (≈ 6.07 µM) |
| Cc1nnnn1CC#CI | 3.13 µg/mL (≈ 12.6 µM) | 6.25 µg/mL (≈ 25.2 µM) | 6.25 µg/mL (≈ 25.2 µM) | 3.13 µg/mL (≈ 12.6 µM) | 3.13 µg/mL (≈ 12.6 µM) |
| O=[N+]([O-])c1c(Cl)c(Cl)n(CC#CI)c1Cc1cc(Cl)cc(Cl)c1O | 3.13 µg/mL (≈ 6.02 µM) | 25 µg/mL (≈ 48.1 µM) | 12.5 µg/mL (≈ 24 µM) | 3.13 µg/mL (≈ 6.02 µM) | 3.13 µg/mL (≈ 6.02 µM) |
| COc1ccc(Cl)cc1C(=O)c1cccn1CC(I)=C(I)I | 12.5 µg/mL (≈ 19.1 µM) | 25 µg/mL (≈ 38.3 µM) | 25 µg/mL (≈ 38.3 µM) | 25 µg/mL (≈ 38.3 µM) | 12.5 µg/mL (≈ 19.1 µM) |
| CCCCCCCc1nnn(CC(I)=C(I)I)n1 | 0.78 µg/mL (≈ 1.33 µM) | 12.5 µg/mL (≈ 21.3 µM) |  |  |  |
| CCCc1nnn(CC#CI)n1 | 0.1 µg/mL (≈ 0.362 µM) |  | 0.1 µg/mL (≈ 0.362 µM) |  | 0.1 µg/mL (≈ 0.362 µM) |
| IC#CCn1cnnn1 | 1.56 µg/mL (≈ 6.67 µM) | 3.13 µg/mL (≈ 13.4 µM) | 1.56 µg/mL (≈ 6.67 µM) | 0.78 µg/mL (≈ 3.33 µM) | 1.56 µg/mL (≈ 6.67 µM) |
| CC(C)(C)c1nnnn1CC#CI | 3.13 µg/mL (≈ 10.8 µM) | 12.5 µg/mL (≈ 43.1 µM) | 6.25 µg/mL (≈ 21.5 µM) | 25 µg/mL (≈ 86.2 µM) | 0.78 µg/mL (≈ 2.69 µM) |
| CCc1nnn(CC(I)=C(I)I)n1 | 0.2 µg/mL (≈ 0.388 µM) | 0.78 µg/mL (≈ 1.51 µM) | 0.2 µg/mL (≈ 0.388 µM) | 0.78 µg/mL (≈ 1.51 µM) | 0.1 µg/mL (≈ 0.194 µM) |
| IC#CCn1cccn1 | 0.39 µg/mL (≈ 1.68 µM) | 3.13 µg/mL (≈ 13.5 µM) | 0.78 µg/mL (≈ 3.36 µM) | 0.78 µg/mL (≈ 3.36 µM) | 0.39 µg/mL (≈ 1.68 µM) |
| CCCCCCCc1nnnn1CC(I)=C(I)I | 0.1 µg/mL (≈ 0.171 µM) | > 25 µg/mL |  | > 25 µg/mL | 0.1 µg/mL (≈ 0.171 µM) |
| Cc1nccn1CC(I)=C(I)I | 6.25 µg/mL (≈ 12.5 µM) | 12.5 µg/mL (≈ 25 µM) | 6.25 µg/mL (≈ 12.5 µM) | 25 µg/mL (≈ 50 µM) | 3.13 µg/mL (≈ 6.26 µM) |
| O=[N+]([O-])c1ccn(CC(I)=C(I)I)c1 | 0.2 µg/mL (≈ 0.377 µM) | 0.2 µg/mL (≈ 0.377 µM) | 0.2 µg/mL (≈ 0.377 µM) |  |  |
| CCCCCc1nnn(CC(I)=C(I)I)n1 | 0.1 µg/mL (≈ 0.179 µM) |  |  |  | 0.2 µg/mL (≈ 0.358 µM) |
| Cc1nnn(CC(I)=C(I)I)n1 | 0.2 µg/mL (≈ 0.399 µM) | 0.78 µg/mL (≈ 1.55 µM) | 0.39 µg/mL (≈ 0.777 µM) |  | 0.2 µg/mL (≈ 0.399 µM) |
| CCCCCc1nnnn1CC(I)=C(I)I | 0.1 µg/mL (≈ 0.179 µM) |  |  | > 25 µg/mL | 0.1 µg/mL (≈ 0.179 µM) |
| Clc1cc(Cl)c(OCC#CI)cc1Cl [HALOPROGIN] | 0.39 µg/mL (≈ 1.08 µM) | 3.13 µg/mL (≈ 8.66 µM) | 3.13 µg/mL (≈ 8.66 µM) | 1.56 µg/mL (≈ 4.32 µM) | 0.39 µg/mL (≈ 1.08 µM) |
| COc1ccc(-c2nnnn2CC(I)=C(I)I)cc1 | 0.1 µg/mL (≈ 0.168 µM) | 6.25 µg/mL (≈ 10.5 µM) | 0.78 µg/mL (≈ 1.31 µM) | 0.78 µg/mL (≈ 1.31 µM) | 0.39 µg/mL (≈ 0.657 µM) |
| CC(C)(C)c1nnn(CC(I)=C(I)I)n1 | 0.39 µg/mL (≈ 0.717 µM) | > 25 µg/mL |  | > 25 µg/mL |  |
| O=C(c1ccccc1)c1cccn1CC(I)=C(I)I | 1.56 µg/mL (≈ 2.65 µM) | 6.25 µg/mL (≈ 10.6 µM) | 6.25 µg/mL (≈ 10.6 µM) | 6.25 µg/mL (≈ 10.6 µM) | 3.13 µg/mL (≈ 5.31 µM) |
| CCCCCc1nnnn1CC#CI | 0.2 µg/mL (≈ 0.658 µM) | 3.13 µg/mL (≈ 10.3 µM) | 0.39 µg/mL (≈ 1.28 µM) | 3.13 µg/mL (≈ 10.3 µM) | 0.1 µg/mL (≈ 0.329 µM) |

Other lines, results leading:

| MIC (Trichophyton benhamiae) | MIC (Candida albicans) | MIC (Aspergillus fumigatus) | MIC (Cryptococcus neoformans) | MIC [1] | Structure (SMILES) |
| --- | --- | --- | --- | --- | --- |
| 0.2 µg/mL (≈ 0.617 µM) |  |  |  |  | Cc1ccc(-c2nnn(CC#CI)n2)cc1 |
| 0.1 µg/mL (≈ 0.305 µM) | 0.78 µg/mL (≈ 2.38 µM) | 0.2 µg/mL (≈ 0.61 µM) | 0.78 µg/mL (≈ 2.38 µM) | 0.1 µg/mL (≈ 0.305 µM) | Fc1ccc(-c2nnn(CC#CI)n2)cc1 |
| 0.1 µg/mL (≈ 0.294 µM) |  |  | 25 µg/mL (≈ 73.5 µM) | 0.1 µg/mL (≈ 0.294 µM) | COc1ccc(-c2nnn(CC#CI)n2)cc1 |
| 3.13 µg/mL (≈ 9.34 µM) | 50 µg/mL (≈ 149 µM) | 6.25 µg/mL (≈ 18.7 µM) | 50 µg/mL (≈ 149 µM) | 1.56 µg/mL (≈ 4.66 µM) | N#Cc1ccc(-c2nnn(CC#CI)n2)cc1 |
| 0.1 µg/mL (≈ 0.172 µM) | > 100 µg/mL | > 100 µg/mL | > 100 µg/mL | 0.78 µg/mL (≈ 1.34 µM) | Fc1ccc(-c2nnn(CC(I)=C(I)I)n2)cc1 |
| 6.25 µg/mL (≈ 17.7 µM) | > 100 µg/mL | > 100 µg/mL | 12.5 µg/mL (≈ 35.4 µM) | 3.13 µg/mL (≈ 8.86 µM) | NC(=O)c1ccc(-c2nnn(CC#CI)n2)cc1 |
| 0.1 µg/mL (≈ 0.294 µM) | 25 µg/mL (≈ 73.5 µM) | 0.78 µg/mL (≈ 2.29 µM) | 25 µg/mL (≈ 73.5 µM) | 0.2 µg/mL (≈ 0.588 µM) | COc1ccc(-c2nnnn2CC#CI)cc1 |
| 0.2 µg/mL (≈ 0.58 µM) | 1.56 µg/mL (≈ 4.53 µM) | 0.39 µg/mL (≈ 1.13 µM) |  | 0.39 µg/mL (≈ 1.13 µM) | Clc1ccc(-c2nnnn2CC#CI)cc1 |
| 0.78 µg/mL (≈ 3.14 µM) | 1.56 µg/mL (≈ 6.29 µM) | 0.78 µg/mL (≈ 3.14 µM) | 0.78 µg/mL (≈ 3.14 µM) | 0.78 µg/mL (≈ 3.14 µM) | Cc1nnn(CC#CI)n1 |
| 0.1 µg/mL (≈ 0.264 µM) | 1.56 µg/mL (≈ 4.12 µM) | 1.56 µg/mL (≈ 4.12 µM) | 0.39 µg/mL (≈ 1.03 µM) | 0.1 µg/mL (≈ 0.264 µM) | Clc1cc(Cl)cc(-c2nnn(CC#CI)n2)c1 |
| 0.2 µg/mL (≈ 0.613 µM) | 6.25 µg/mL (≈ 19.2 µM) | 0.39 µg/mL (≈ 1.2 µM) | 12.5 µg/mL (≈ 38.3 µM) | 0.1 µg/mL (≈ 0.307 µM) | Oc1ccc(-c2nnn(CC#CI)n2)cc1 |
